According to patent US20120328518A1, “PROSTATE SPECIFIC MEMBRANE ANTIGEN INHIBITORS” (PIRAMAL IMAGING SA, priority 2009, published 2012):
Values belong to the molecule of their own block, whether it stands above or below them.

Columns and labels:
LNCaP xenografts [1] = assay: PET/CT-imaging in LNCaP-tumor bearing mice; format: in vivo
PSMA (FOLH1) = target: T1, PSMA (FOLH1) (Homo sapiens, UniProt Q04609); assay: In vitro inhibition of NAALADase activity in LNCaP membrane extracts; format: biochemical; conditions: crude membrane extracts from LNCaP cells; release of [3H]-Glutamate from [3H]NAAG, pH7.4, 30 min at 37° C.; read-out: IC50 with respect to NAALADase activity
T1 construct: protein extracted from the membrane fraction of LNCaP cells; host or cells: LNCaP cells (crude membrane extract)
T1 sequence (Q04609 whole entry): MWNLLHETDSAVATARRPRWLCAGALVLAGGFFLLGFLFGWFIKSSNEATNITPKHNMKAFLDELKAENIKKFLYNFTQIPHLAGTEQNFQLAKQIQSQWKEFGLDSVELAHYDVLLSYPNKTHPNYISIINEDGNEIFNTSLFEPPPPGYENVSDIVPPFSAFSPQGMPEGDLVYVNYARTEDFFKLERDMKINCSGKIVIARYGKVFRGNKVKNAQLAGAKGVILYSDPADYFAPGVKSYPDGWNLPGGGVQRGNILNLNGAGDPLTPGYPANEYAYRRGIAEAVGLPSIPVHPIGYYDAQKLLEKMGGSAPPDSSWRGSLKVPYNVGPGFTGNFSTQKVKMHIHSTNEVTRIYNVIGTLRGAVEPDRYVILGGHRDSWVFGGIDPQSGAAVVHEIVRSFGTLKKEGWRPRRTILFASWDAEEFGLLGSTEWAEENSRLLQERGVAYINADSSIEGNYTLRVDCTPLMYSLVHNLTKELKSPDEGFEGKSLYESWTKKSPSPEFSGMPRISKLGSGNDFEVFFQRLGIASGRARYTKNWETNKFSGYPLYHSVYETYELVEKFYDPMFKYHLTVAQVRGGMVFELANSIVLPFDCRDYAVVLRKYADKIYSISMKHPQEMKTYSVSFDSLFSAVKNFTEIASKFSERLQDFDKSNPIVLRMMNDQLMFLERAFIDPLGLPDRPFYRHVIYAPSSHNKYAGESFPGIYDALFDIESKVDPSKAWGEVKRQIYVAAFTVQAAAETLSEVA
Procedure: NAALADase activity was assayed essentially as described previously (Slusher B S, Tsai G, Yoo G, Coyle J T. Immunocytochemical localization of the N-acetyl-aspartyl-glutamate hydrolyzing enzyme N-acetylated alpha-linked acidic dipeptidase [NAALADase]. J Comp Neurol 1992; 315:217-229) in crude membrane extracts from LNCaP tissue culture cells (ref ATCC CRL-1740). Briefly, the release of [3H]-Glutamate from [3H] N-acetyl-aspartyl-glutamate (NAAG) in 50 mM Tris-Cl buffer pH7.4 after 30 min at 37° C. was measured using 1-5 μg/ml of protein extracted from the membrane fraction of LNCaP cells; substrate and product were resolved by cation-exchange liquid chromatography.

LNCaP xenografts [2] = assay: PET/CT-imaging in LNCaP-tumor bearing mice; format: in vivo; conditions: 50-70 min after injection of ~10 MBq
Procedure: Example F13 was imaged on a microPET/CT (Inveon, Siemens) in LNCaP tumor-bearing mice 50-70 min after injection of ˜10 MBq radiotracer Example F13.
Example F14 was imaged on a microPET/CT (Inveon, Siemens) in LNCaP tumor-bearing mice 50-70 min after injection of ˜10 MBq radiotracer Example F14.

[3] = Stability in human plasma in vitro (TLC); format: in vitro ADME
Procedure: Stability of Example F13 was investigated in human plasma in vitro. The Example was analyzed by TLC at different time points. […] After two hours, 82% of Example F13 was still intact.

[4] = Metabolic stability, human microsomes (TLC); format: in vitro ADME; conditions: TLC after different timepoints
Procedure: (§1) Metabolic stability of Example F13 was assessed by incubating F13 in the presence of mouse, rat, and human microsomes and rat hepatocytes. After different timepoints TLC analysis was performed. No metabolism by microsomes or hepatocytes was found.

[5] = Biodistribution in LNCaP bearing nude mice; format: in vivo
Procedure: Male nude mice were implanted subcutaneously with 10 million LNCaP tumor cells, which were freshly expanded in a sterilized solution phosphate-buffered saline (PBS, pH 7.4). 4 weeks after inoculation the mice were injected into the tail vein with 150 kBq of radiolabeled Example F13, diluted in PBS (total injected volume 100 μl). At 30, 60, 120, and 180 min intervals, the mice (in groups of 3) were sacrificed and the organs of interest were collected, rinsed of excess blood, weighed and counted in a gamma-counter.

[6] = Metabolic stability, rat hepatocytes (TLC); format: in vitro ADME; conditions: TLC after different timepoints
Procedure: as §1

[7] = Metabolic stability, mouse microsomes (TLC); format: in vitro ADME; conditions: TLC after different timepoints
Procedure: as §1

[8] = Metabolic stability, rat microsomes (TLC); format: in vitro ADME; conditions: TLC after different timepoints
Procedure: as §1

[9] = 110-130 min after injection of ~10 MBq
[10] = 0.5 h after injection of 150 kBq into tail vein
[11] = 1.0 h after injection of 150 kBq into tail vein
[12] = 2.0 h after injection of 150 kBq into tail vein
[13] = 3.0 h after injection of 150 kBq into tail vein

IC50 (PSMA (FOLH1)): 0.014 µM
Compound: O=C(O)[C@H](C[C@@H](F)C(=O)O)CP(=O)(O)O [Example F8, (2R,4S)-2-Fluoro-4-(phosphonomethyl)pentanedioic acid]

IC50 (PSMA (FOLH1)): 0.03 µM
Compound: O=C(O)C(F)CC(CP(=O)(O)O)C(=O)O (racemic) [Example F3, rac-2-Fluoro-4-(phosphonomethyl)pentanedioic acid]
blocking of tumor-contrast of radiotracer Example F15a (LNCaP xenografts [1]; 22 μg non-radioactive Example F3 with ~10 MBq Example F15a, 110-130 min): effectively blocked

Second part, the molecule before the results:

Compound: O=C(O)C([18F])CC(CP(=O)(O)O)C(=O)O (racemic) [Example F15a, rac-2-[^18F]-Fluoro-4-(phosphonomethyl)pentanedioic acid]
background activity in PET/CT image (LNCaP xenografts [1]; [9]): very low background activity
kidney and bladder uptake in PET/CT image (LNCaP xenografts [1]; [9]): strong kidney and bladder uptake
renal clearance (LNCaP xenografts [1]; [9]): rapid renal clearance
tumor-contrast in PET/CT image (LNCaP xenografts [1]; [9]): High tumor-contrast

Compound: O=C(O)[C@H](C[C@H](F)C(=O)O)CP(=O)(O)O [Example F10, (2S,4S)-2-Fluoro-4-(phosphonomethyl)pentanedioic acid]
IC50 (PSMA (FOLH1)): 0.007 µM

Compound: O=C(O)[C@H](C[C@@H]([18F])C(=O)O)CP(=O)(O)O [Example F14, (2R,4S)-2-[^18F]-Fluoro-4-(phosphonomethyl)pentanedioic acid]
background activity in PET/CT image (LNCaP xenografts [2]): very low background activity
kidney and bladder uptake in PET/CT image (LNCaP xenografts [2]): strong kidney and bladder uptake
renal clearance (LNCaP xenografts [2]): rapid renal clearance
tumor-contrast in PET/CT image (LNCaP xenografts [2]): High tumor-contrast

Compound: O=C(O)[C@H](C[C@H]([18F])C(=O)O)CP(=O)(O)O [Example F13, (2S,4S)-2-[^18F]-Fluoro-4-(phosphonomethyl)pentanedioic acid]
release of free fluoride upon incubation in human plasma ([3]; TLC at different time points): did not show increased release of free fluoride
compound still intact in human plasma ([3]; after two hours, TLC): 82%
metabolism by microsomes [4]: No metabolism
background activity in PET/CT image (LNCaP xenografts [2]): very low background activity
kidney and bladder uptake in PET/CT image (LNCaP xenografts [2]): strong kidney and bladder uptake
renal clearance (LNCaP xenografts [2]): rapid renal clearance
tumor-contrast in PET/CT image (LNCaP xenografts [2]): High tumor-contrast
% Dosis/g adrenals [5, 10]: 3.31 % Dosis/g
% Dosis/g blood [5, 10]: 0.79 % Dosis/g
% Dosis/g bone [5, 10]: 2.61 % Dosis/g
% Dosis/g brain [5, 10]: 0.05 % Dosis/g
% Dosis/g fat [5, 10]: 0.78 % Dosis/g
% Dosis/g heart [5, 10]: 0.53 % Dosis/g
% Dosis/g intestine [5, 10]: 0.23 % Dosis/g
% Dosis/g kidney [5, 10]: 105.78 % Dosis/g
% Dosis/g liver [5, 10]: 0.40 % Dosis/g
% Dosis/g lung [5, 10]: 1.12 % Dosis/g
% Dosis/g muscle [5, 10]: 0.26 % Dosis/g
% Dosis/g pankreas [5, 10]: 0.45 % Dosis/g
% Dosis/g prostate [5, 10]: 0.69 % Dosis/g
% Dosis/g skin [5, 10]: 0.85 % Dosis/g
% Dosis/g spleen [5, 10]: 3.00 % Dosis/g
% Dosis/g stomach [5, 10]: 0.51 % Dosis/g
% Dosis/g tail [5, 10]: 4.69 % Dosis/g
% Dosis/g testes [5, 10]: 0.76 % Dosis/g
% Dosis/g thyroid [5, 10]: 0.68 % Dosis/g
% Dosis/g tumor [5, 10]: 5.31 % Dosis/g
% Dosis/g adrenals [5, 11]: 2.46 % Dosis/g
% Dosis/g blood [5, 11]: 0.33 % Dosis/g
% Dosis/g bone [5, 11]: 2.53 % Dosis/g
% Dosis/g brain [5, 11]: 0.06 % Dosis/g
% Dosis/g fat [5, 11]: 0.36 % Dosis/g
% Dosis/g heart [5, 11]: 0.27 % Dosis/g
% Dosis/g intestine [5, 11]: 0.23 % Dosis/g
% Dosis/g kidney [5, 11]: 105.40 % Dosis/g
% Dosis/g liver [5, 11]: 0.42 % Dosis/g
% Dosis/g lung [5, 11]: 0.49 % Dosis/g
% Dosis/g muscle [5, 11]: 0.21 % Dosis/g
% Dosis/g pankreas [5, 11]: 0.22 % Dosis/g
% Dosis/g prostate [5, 11]: 0.70 % Dosis/g
% Dosis/g skin [5, 11]: 0.76 % Dosis/g
% Dosis/g spleen [5, 11]: 2.48 % Dosis/g
% Dosis/g stomach [5, 11]: 0.26 % Dosis/g
% Dosis/g tail [5, 11]: 2.37 % Dosis/g
% Dosis/g testes [5, 11]: 0.50 % Dosis/g
% Dosis/g thyroid [5, 11]: 0.45 % Dosis/g
% Dosis/g tumor [5, 11]: 4.08 % Dosis/g
% Dosis/g adrenals [5, 12]: 0.51 % Dosis/g
% Dosis/g blood [5, 12]: 0.07 % Dosis/g
% Dosis/g bone [5, 12]: 1.52 % Dosis/g
% Dosis/g brain [5, 12]: 0.04 % Dosis/g
% Dosis/g fat [5, 12]: 0.17 % Dosis/g
% Dosis/g heart [5, 12]: 0.06 % Dosis/g
% Dosis/g intestine [5, 12]: 0.28 % Dosis/g
% Dosis/g kidney [5, 12]: 41.15 % Dosis/g
% Dosis/g liver [5, 12]: 0.24 % Dosis/g
% Dosis/g lung [5, 12]: 0.17 % Dosis/g
% Dosis/g muscle [5, 12]: 0.12 % Dosis/g
% Dosis/g pankreas [5, 12]: 0.07 % Dosis/g
% Dosis/g prostate [5, 12]: 0.66 % Dosis/g
% Dosis/g skin [5, 12]: 0.29 % Dosis/g
% Dosis/g spleen [5, 12]: 0.42 % Dosis/g
% Dosis/g stomach [5, 12]: 0.11 % Dosis/g
% Dosis/g tail [5, 12]: 1.73 % Dosis/g
% Dosis/g testes [5, 12]: 0.15 % Dosis/g
% Dosis/g thyroid [5, 12]: 0.18 % Dosis/g
% Dosis/g tumor [5, 12]: 3.13 % Dosis/g
% Dosis/g adrenals [5, 13]: 0.573 % Dosis/g
% Dosis/g blood [5, 13]: 0.08 % Dosis/g
% Dosis/g bone [5, 13]: 2.12 % Dosis/g
% Dosis/g brain [5, 13]: 0.03 % Dosis/g
% Dosis/g fat [5, 13]: 0.35 % Dosis/g
% Dosis/g heart [5, 13]: 0.08 % Dosis/g
% Dosis/g intestine [5, 13]: 1.03 % Dosis/g
% Dosis/g kidney [5, 13]: 46.96 % Dosis/g
% Dosis/g liver [5, 13]: 0.35 % Dosis/g
% Dosis/g lung [5, 13]: 0.16 % Dosis/g
% Dosis/g muscle [5, 13]: 0.06 % Dosis/g
% Dosis/g pankreas [5, 13]: 0.09 % Dosis/g
% Dosis/g prostate [5, 13]: 0.53 % Dosis/g
% Dosis/g skin [5, 13]: 0.24 % Dosis/g
% Dosis/g spleen [5, 13]: 0.41 % Dosis/g
% Dosis/g stomach [5, 13]: 0.20 % Dosis/g
% Dosis/g tail [5, 13]: 2.52 % Dosis/g
% Dosis/g testes [5, 13]: 0.20 % Dosis/g
% Dosis/g thyroid [5, 13]: 0.30 % Dosis/g
% Dosis/g tumor [5, 13]: 4.54 % Dosis/g
metabolism by hepatocytes [6]: No metabolism
metabolism by microsomes [7]: No metabolism
metabolism by microsomes [8]: No metabolism
